Results on 1 compound are retold here after patent publication US9533064B1, “Device and method for decontamination, disinfection, and sanitation” (Nanomist Systems, LLC, priority 2013, dated 2017).

The structures appear in SMILES notation.

The test system of this assay is G. Stearothermophilus.
Where [1] appears, read: 36-m^3 room and 110-m^3 carpeted rooms, initial 40-55% RH, 20-25 C, biological indicators in Tyvek pouches.

Protocol: The application of condensed vapor cloud generated biocide dispersion was tested in a 36-m^3 single room and in 110-m^3 two-room model (family room+bathroom). The single room was tiled floor and two-room model had wall-to-wall carpet. With initial room humidity in the range 40-55% RH and 20-25 C, decontamination tests were carried out using biological indicators (BI). Biological indicator test disks were prepared by Mesa Labs. The Biological indicators are inoculated with 4-log, 5-log and 6-log populations of G. Stearothermophilus. The BI's are in Tyvek pouches. […] The condensed vapor generator was calibrated with scaling of room size, mass concentration, carpet/tilled floor, and initial RH and temperature.

Regarding `OO` [HP, hydrogen peroxide], under setting [1], the “HP concentration above which 5-log kills were observed” value is given as “above 0.7 g/m^3” and the “HP concentration above which 6-log kill was observed” value is “above 1.8 g/m^3”. Moreover, the kill time (HP mass injection rate of −50 g/min) fell in the range of 10 to 15 min.
